Assay results from patent US10071974B2, “Morpholine and 1,4-oxazepane amides as somatostatin receptor subtype 4 (SSTR4) agonists” (Boehringer Ingelheim International GmbH, priority 2014, dated 2018).

Tests used:
[1] = target: human Somatostatin 4 Receptor (SSTR4) (Homo sapiens (Human), UniProt P31391); assay: cAMP assay with human somatostatin 4 receptor (hSSTR4 expressing H4 cells); format: cell-based; details: read-out: SSTR4 agonism EC50
in vitro = details: human, microsomes, pH 7.6

Sequence of human Somatostatin 4 Receptor (SSTR4) (P31391 whole entry): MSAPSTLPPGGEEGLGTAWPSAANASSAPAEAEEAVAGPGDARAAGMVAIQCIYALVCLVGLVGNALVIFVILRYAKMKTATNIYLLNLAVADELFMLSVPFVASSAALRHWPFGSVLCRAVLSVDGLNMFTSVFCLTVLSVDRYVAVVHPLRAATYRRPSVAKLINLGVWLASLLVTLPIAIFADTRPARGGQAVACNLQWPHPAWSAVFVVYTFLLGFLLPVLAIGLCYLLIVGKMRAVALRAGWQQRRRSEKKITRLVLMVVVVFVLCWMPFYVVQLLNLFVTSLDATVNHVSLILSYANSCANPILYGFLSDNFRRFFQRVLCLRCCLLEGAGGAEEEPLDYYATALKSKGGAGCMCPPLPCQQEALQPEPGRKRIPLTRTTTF

EC50 [1] [nM] | half-life at 1 μM (in vitro) [h] | Structure (SMILES)
7 | > 2.17 | Cc1cc2ccccc2c(C(C)(C)NC(=O)C2CNCCOC2)n1 (racemic) [Example 44]
5 | > 2.17 | Cc1cccn2c(C(C)(C)NC(=O)C3CNCCOC3)nc(C)c12 (racemic) [Example 128]
5.1 | > 2.17 | Cn1nc(C(C)(C)NC(=O)C2CNCCOC2)c2cccc(F)c21 (single isomer, unassigned) [Example 77]
36.5 | > 2.17 | Cn1nc(C(C)(C)NC(=O)C2CNCCCO2)c2ccccc21 (racemic) [Example 23]
2.9 | > 2.17 | Cc1cccc2c(C(C)(C)NC(=O)C3CNCCOC3)noc12 (single isomer, unassigned) [Example 55]
3.7 | > 2.17 | Cc1cccn2c(C(C)(C)NC(=O)C3CNCCOC3)ccc12 (single isomer, unassigned) [Example 136]
18.9 | > 2.17 | Cc1cc2ccccc2c(C(C)(C)NC(=O)C2CNCCCO2)n1 (single isomer, unassigned) [Example 48]
55.8 | > 2.17 | Cn1nc(C(C)(C)NC(=O)C2CCNCCO2)c2ccccc21 (single isomer, unassigned) [Example 27]
1.4 | > 2.17 | CC(C)(NC(=O)C1CNCCOC1)c1n[nH]c2c(Cl)cccc12 (single isomer, unassigned) [Example 93]
3.7 | 1.4 | Cc1cccn2c(C(C)(C)NC(=O)[C@@H]3CNCCO3)ccc12 [Example 109]
– | 1.83 | Cc1cc2ccccc2c(C(C)(C)NC(=O)[C@@H]2CNCCO2)n1 [Example 43]
61.3 | > 2.17 | Cn1nc(C(C)(C)NC(=O)C2CCNCCO2)c2ccccc21 (racemic) [Example 26]
3 | > 2.17 | Cn1nc(C(C)(C)NC(=O)C2CNCCOC2)c2cccc(Cl)c21 (single isomer, unassigned) [Example 82]
5.9 | > 2.17 | CC(C)(NC(=O)C1CNCCOC1)c1ncc2c(Cl)cccn12 (single isomer, unassigned) [Example 120]
2.4 | > 2.17 | Cc1cccc2c(C(C)(C)NC(=O)[C@@H]3CNCCO3)n[nH]c12 [Example 57]
2 | > 2.17 | Cc1cccc2c(C(C)(C)NC(=O)C3CNCCOC3)nn(C)c12 (single isomer, unassigned) [Example 85]
3.9 | > 2.17 | Cn1nc(C(C)(C)NC(=O)C2CNCCOC2)c2ccccc21 (racemic) [Example 20]
29.1 | > 2.17 | Cc1cccn2c(C(C)(C)NC(=O)C3CNCCCO3)ncc12 (single isomer, unassigned) [Example 145]
9.3 | > 2.17 | Cc1cccn2c(C(C)(C)NC(=O)C3CNCCOC3)ncc12 (racemic) [Example 116]
11.7 | > 2.17 | Cc1nnc(C(C)(C)NC(=O)C2CNCCOC2)c2ccccc12 (racemic) [Example 37]
23000 | – | CC(C)(NC(=O)C1CNCCCO1)c1noc2c(F)cccc12 (single isomer, unassigned) [Example 67]
3.1 | > 2.17 | CC(C)(NC(=O)C1CNCCOC1)c1n[nH]c2c(F)cccc12 (single isomer, unassigned) [Example 89]
3.4 | > 2.17 | Cc1cc2ccccc2c(C(C)(C)NC(=O)C2CNCCOC2)n1 (single isomer, unassigned) [Example 46]
4.8 | – | Cn1nc(C(C)(C)NC(=O)C2CNCCOC2)c2cccc(Cl)c21 (racemic) [Example 80]
0.7 | > 2.17 | Cc1ncc(C(C)(C)NC(=O)C2CNCCOC2)c2ccccc12 (single isomer, unassigned) [Example 41]

EC50 [1] [nM] | half-life at 1 μM (in vitro) [h] | Structure (SMILES)
1000 | – | Cc1cccc2c(C(C)(C)NC(=O)C3CNCCOC3)nn(C)c12 (single isomer, unassigned) [Example 86]
73.5 | – | Cc1cccn2c(C(C)(C)NC(=O)[C@@H]3CNCCO3)nc(C3CC3)c12 [Example 104]
13.1 | > 2.17 | Cn1nc(C(C)(C)NC(=O)[C@@H]2CNCCO2)c2ccc(F)cc21 [Example 30]
31 | – | Cc1cccn2c(C3(NC(=O)[C@@H]4CNCCO4)CCC3)ncc12 [Example 102]
5.7 | > 2.17 | Cc1cccc2c(C(C)(C)NC(=O)C3CNCCOC3)cnn12 (single isomer, unassigned) [Example 34]
3.4 | > 2.17 | CC(C)(NC(=O)[C@@H]1CNCCO1)c1n[nH]c2c(Cl)cccc12 [Example 91]
98.1 | – | Cc1nc(C(C)(C)NC(=O)C2CNCCOC2)c2cccc(C)c2n1 (single isomer, unassigned) [Example 134]
55.3 | – | Cc1nc(C(C)(C)NC(=O)C2CNCCOC2)c2cccc(C)c2n1 (racemic) [Example 133]
1.3 | > 2.17 | Cc1ncc(C(C)(C)NC(=O)[C@@H]2CNCCO2)c2ccccc12 [Example 38]
90.1 | – | Cc1cc2cccnc2c(C(C)(C)NC(=O)C2CNCCOC2)n1 (stereo not shown) [Example 2]
1000 | – | Cc1cccn2c(C(C)(C)NC(=O)C3CNCCOC3)nc(C3CC3)c12 (single isomer, unassigned) [Example 140]
4.1 | – | Cc1cccc2c(C(C)(C)NC(=O)C3CNCCOC3)n[nH]c12 (racemic) [Example 58]
8.5 | – | Cc1cccn2c(C(C)(C)NC(=O)C3CNCCOC3)ccc12 (racemic) [Example 135]
1000 | – | Cc1cccn2c(C3(NC(=O)[C@@H]4CNCCO4)CCOC3)ncc12 (single isomer, unassigned) [Example 114]
795 | – | Cc1cc2ccccc2c(C(C)(C)NC(=O)C2CNCCOC2)n1 (single isomer, unassigned) [Example 45]
13 | > 2.17 | CC(C)(NC(=O)[C@@H]1CNCCO1)c1ncc2c(Cl)cccn12 [Example 96]
209 | – | CC(C)(COc1nccc2ccccc12)NC(=O)C1CNCCOC1 (single isomer, unassigned) [Example 18]
2.6 | > 2.17 | Cc1cccn2c(C(C)(C)NC(=O)C3CNCCOC3)ncc12 (single isomer, unassigned) [Example 117]
65.7 | – | CC(C)(NC(=O)C1CNCCOC1)c1noc2c(F)cccc12 (racemic) [Example 62]
90.2 | – | Cc1cccn2c(C(C)(C)NC(=O)C3CCNCCO3)ncc12 (racemic) [Example 141]
1.3 | > 2.17 | Cc1cccc2c(C(C)(C)NC(=O)C3CNCCOC3)n[nH]c12 (single isomer, unassigned) [Example 60]
258 | – | CC(C)(NC(=O)[C@H]1CNCCO1)c1cccc2ncccc12 [Example 8]
415 | – | Cc1ncc(C(C)(C)NC(=O)C2CNCCOC2)c2ccccc12 (single isomer, unassigned) [Example 42]
190 | – | CC(C)(COc1cnccc1C(F)(F)F)NC(=O)[C@@H]1CNCCO1 [Example 9]
4.7 | – | CC(C)(NC(=O)C1CNCCOC1)c1cccc2ccccc12 (stereo not shown) [Example 1]
